We go through 56 molecules from patent US20080312292A1, “Antipruritics” (priority 2002, published 2008).

pIC50, pKi: −log10 of the molar value. Read-outs that look alike come from different tables or passages of the source. Marks after values point to notes of the source that are not given here.

The target of one series is T1, human CB1R (Homo sapiens, UniProt P21554).
T1 construct: expressed in transfected cells; host or cells: CHO cells
Briefly: cell-based. The conditions noted are these: CHO cells expressing human CB1R, forskolin-stimulated cAMP synthesis; read-out: CB1 receptor IC50.

Series [1] concerns the target T2, Human cannabinoid receptor CB1R (Homo sapiens, UniProt P21554).
T2 construct: expressed in transfected cells; host or cells: CHO cells
Nature of the series: Human cannabinoid receptor binding inhibition, [3H]CP55940, CB1R. The conditions noted are these: membranes of CB1R-expressing CHO cells, [3H]CP55940 0.5 nM; read-out: Ki CB1 receptor. Here is the method:
(§1) The crude membrane fractions as Human cannabinoid receptor were then prepared from the CB1R or CB2R-expressing CHO cells. Receptor binding assay was performed by incubating the membranes with each test compound and 38,000 dpm [^3H]CP55940 (at a final concentration of 0.5 nM: NEN Life Science Products) in the assay buffer (50 mM Tris-HCl; 1 mM EDTA, 3 mM MgCl2, pH 7.4) containing 0.5% bovine serum albumin (BSA) for 2 hr at 25° C. The incubation mixture was filtered through 1% polyethylenimine (PEI)-treated GF/C glass filter and washed with 50 mM Tris-HCl (pH 7.4) containing 0.1% BSA. The radioactivity was then counted with a liquid scintillation counter. […] Ki value of test compound is calculated by obtained IC50 value and Kd value of [^3H]CP55940.

The target in series [2] is T3, Human cannabinoid receptor CB2R (Homo sapiens, UniProt P34972).
T3 construct: expressed in transfected cells; host or cells: CHO cells
T3 sequence (P34972 whole entry): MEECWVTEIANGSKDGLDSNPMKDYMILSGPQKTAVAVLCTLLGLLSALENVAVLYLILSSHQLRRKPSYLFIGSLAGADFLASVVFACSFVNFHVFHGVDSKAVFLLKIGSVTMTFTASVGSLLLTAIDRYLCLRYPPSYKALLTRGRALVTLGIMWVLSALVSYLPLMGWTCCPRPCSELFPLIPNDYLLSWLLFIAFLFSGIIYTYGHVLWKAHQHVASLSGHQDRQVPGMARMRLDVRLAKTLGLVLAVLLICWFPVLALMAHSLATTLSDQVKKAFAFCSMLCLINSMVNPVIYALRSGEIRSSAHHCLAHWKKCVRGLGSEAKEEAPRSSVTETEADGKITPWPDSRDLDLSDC
Briefly: Human cannabinoid receptor binding inhibition, [3H]CP55940, CB2R. The conditions noted are these: membranes of CB2R-expressing CHO cells, [3H]CP55940 0.5 nM; read-out: Ki CB2 receptor. Here is the method:
as §1

For a further series, the target named is T4, human CB2R (Homo sapiens, UniProt P34972).
T4 construct: expressed in transfected cells; host or cells: CHO cells
T4 sequence (P34972 whole entry): as above
Nature of the series: Cannabinoid receptor-mediated suppression of forskolin-stimulated cAMP synthesis, CB2R. The series is classed as cell-based.

The target of another series is T5, mouse CB2 receptor (Mus musculus, UniProt P47936).
T5 construct: The membrane fractions of mouse brain and spleen that abundantly express CB1 and CB2 receptor, respectively; from tissue; host or cells: mouse spleen membrane fraction (C57BL/6 J)
T5 sequence (P47936 whole entry): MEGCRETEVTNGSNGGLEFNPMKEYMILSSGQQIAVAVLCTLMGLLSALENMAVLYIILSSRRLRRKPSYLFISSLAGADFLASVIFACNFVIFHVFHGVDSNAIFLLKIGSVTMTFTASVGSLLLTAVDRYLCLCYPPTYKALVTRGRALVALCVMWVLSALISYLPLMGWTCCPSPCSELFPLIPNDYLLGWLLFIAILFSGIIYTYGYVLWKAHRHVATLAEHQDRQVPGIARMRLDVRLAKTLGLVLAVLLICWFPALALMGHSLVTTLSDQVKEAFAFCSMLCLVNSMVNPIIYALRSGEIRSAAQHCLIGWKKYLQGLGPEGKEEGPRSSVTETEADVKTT
Briefly: Binding inhibitory activity to mouse cannabinoid receptors, spleen membrane fraction. On the set-up: species or system C57BL/6 J mice. The conditions noted are these: mouse spleen membrane fraction; read-out: Binding Assay: Ki Spleen (CB2).

Series [3] concerns compound 48/80-induced pruritus. Briefly: Inhibitory effect on compound 48/80-induced pruritus in ICR strain mice. The conditions noted are these: for Antipruritic Effect (%): ICR mice, compound 48/80-induced scratching.
[4] abbreviates: CHO cells expressing human CB2R, forskolin-stimulated cAMP synthesis, read-out: CB2 receptor IC50.

T2 sequence (P21554 whole entry): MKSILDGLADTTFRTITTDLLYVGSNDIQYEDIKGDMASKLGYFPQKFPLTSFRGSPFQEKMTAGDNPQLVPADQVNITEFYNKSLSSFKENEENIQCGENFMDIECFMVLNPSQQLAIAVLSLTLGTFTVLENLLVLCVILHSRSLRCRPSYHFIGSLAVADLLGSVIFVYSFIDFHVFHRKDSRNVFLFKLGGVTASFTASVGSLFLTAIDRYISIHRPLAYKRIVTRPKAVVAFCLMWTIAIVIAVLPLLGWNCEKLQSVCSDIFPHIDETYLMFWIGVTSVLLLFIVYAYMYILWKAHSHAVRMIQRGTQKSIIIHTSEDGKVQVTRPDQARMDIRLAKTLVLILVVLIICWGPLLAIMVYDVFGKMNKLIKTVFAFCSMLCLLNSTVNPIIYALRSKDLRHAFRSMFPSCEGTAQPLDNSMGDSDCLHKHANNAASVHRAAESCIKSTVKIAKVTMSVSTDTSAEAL
T1 sequence (P21554 whole entry): as above

With `CCCCn1c(C)c(C)cc(C(=O)NC(C)(C)c2ccccc2)c1=O` [Compound 11-001], the pIC50 at human CB1R is 8.92.
Take `CCCCn1c2c(cc(C(=O)NCCc3ccccc3)c1=O)CCCCCC2` [Compound 4-102]: the pKi in series [1] is 6.04; in series [2] it was 8.80. At human CB2R, this molecule showed a pIC50 of 8.77.
For `CCCCn1c(C)c(C)cc(NC(=O)c2ccc(F)cc2)c1=O`, the melting point was 129 to 130 °C.
Turning to `CCCCn1c(C)c(C)cc(NC(=O)Nc2ccccc2Br)c1=O`, the melting point lay in the range of 154 to 155 °C.
The same measure, in the same setting: next, `CCSC(=S)N1CC(C)(C)CSC1=Nc1ccccc1C(C)C` [Compound I-84]: 68 to 70 °C.
`Cc1cc(C(=O)NC2CCCc3ccccc32)c(=O)n(CC2CCCCC2)c1C` (stereo not drawn) [Compound 11-011]: the pIC50 at human CB1R is 9.22.
Consider `CSC(=S)N1CC(C)(C)CSC1=Nc1ccc(C)c(C)c1` [Compound I-74], for which the melting point fell in the range of 126 to 128 °C. For the same molecule, the pIC50 on human CB2R (setting [4]) is 8.80.
For `CCCCn1c(C)c(C)cc(Oc2nc3ccccc3o2)c1=S` [Compound 2-004, 1-butyl-5,6-dimethyl-3-O-(benzoxazol-2-yl)-2-thiopyridone], the pKi in series [2] is 7.00.
Turning to `CCCc1ccccc1N=C1SCC(C)(C)CN1C(=O)SC` [Compound I-49], the melting point is 64 to 66 °C. For the same molecule, on human CB2R (setting [4]), the pIC50 was 8.66.
On to `COc1ccccc1N=C1SCC(C)(C)CN1C(=S)SC` [Compound I-60], for which the melting point is 128 to 130 °C.
Regarding `CCCCn1c2c(cc(C(=O)NCCc3ccccc3)c1=O)CCCC2` [Compound 4-002, 1-butyl-2-oxo-1,2,5,6,7,8-hexahydroquinoline-3-carboxylic acid phenethylamide], the values for the pKi in series [1] and in series [2] were 6.13 and 7.77, respectively.
As to `CCCCn1c(C)c(I)cc(C(=O)NCCc2ccccc2)c1=O` [Compound 3-038], the figures for the pKi in series [1] and in series [2] were 5.90 and 7.92, respectively. In addition, the pIC50 at human CB2R was 7.54.
As for `Cc1c(C)c(C)n(CC2CCCCC2)c(=O)c1C(=O)NCc1ccccc1` [Compound 3-109], the pIC50 on human CB1R was 8.57.
In the case of `CCSC(=O)N1CC(C)(C)CSC1=Nc1ccc(C)cc1C` [Compound I-39], the pIC50 on human CB2R (setting [4]) is 7.86.
Regarding `CCCCn1c(C)c(C)cc(NC(=O)c2ccccc2Cl)c1=O` [Compound 5-005], the pKi in series [2] is 7.80.
On to `Cc1cc(C(=O)NCC(C)(C)C)c(=O)n(CC2CCCCC2)c1C` [Compound 11-013], for which the pIC50 on human CB1R was 8.12.
On the same count and under the same terms, as for `CCCCn1c2c(cc(C(=O)N[C@H](CF)c3ccccc3)c1=O)CCCCCC2` [Compound 10-089], the figure is 8.03.
The molecule `CCn1c(C)c(C)cc(C(=O)NCc2ccccc2)c1=O` showed a melting point of 117 °C.
On to `CCCCn1c2c(cc(C(=O)N[C@@H](CC)c3ccccc3)c1=O)CCCCCC2` [Compound 10-059], for which the pIC50 on human CB1R is 8.21.
On to `C=CCSC(=S)N1CC2(CCCCC2)CSC1=Nc1ccc(CC)cc1` [II-88], for which the melting point was 98 to 100 °C.
Take `CCCCn1c2c(cc(C(=O)NC(C)(C)c3ccccc3)c1=O)COCC2` [Compound 13-044]: the pIC50 at human CB1R is 8.74.
Molecule `Cc1ccc(Oc2nc3ccccc3o2)c(=S)n1C` gave a melting point of 245 to 247 °C.
In turn, `CCNC(=O)N1CC(C)(C)CSC1=Nc1ccccc1C(C)C` [Compound I-92] returned a melting point of 52 to 53 °C. The pIC50 on human CB2R (setting [4]) is more than 9.70.
In turn, `CCc1ccccc1N=C1SCC(C)(C)CN1C(=S)SC` [Compound I-56] returned a melting point of 107 to 109 °C.
`CCC(C)c1ccccc1N=C1SCC(C)(C)CN1C(=O)SC` (stereo not drawn) [Compound I-51] had a melting point of 53 to 56 °C.
In the case of `CCCCn1c(C)c(C)cc(NC(=O)OCc2ccccc2)c1=O`, the melting point is 65 to 66 °C.
For `CCCCn1c2c(cc(NC(=O)c3ccccc3Cl)c1=O)CCCCCC2` [Compound 13-006], the pIC50 at human CB1R was 8.80.
With `CCCCn1c2c(cc(C(=O)NCc3ccccc3)c1=O)CCCC2` [Compound 4-001], the figures for the pKi in series [1] and in series [2] were 5.55 and 7.55, respectively. The same molecule showed a pIC50 against human CB2R of 7.19.
As for `CCCCn1c2c(cc(C(=O)NC(C)(C)c3ccccc3)c1=O)[C@@H]1CC[C@H]2C1` [Compound 13-023], the pIC50 at human CB1R was 9.52.
For the molecule `CSC(=S)N1CC2(CCOCC2)CSC1=Nc1ccccc1C(C)C` [II-93], the melting point lay within 127 to 128 °C.
As to `CCCCn1c2c(cc(C(=O)Nc3ccccc3C(F)(F)F)c1=O)CCCCCC2` [Compound 10-103], at human CB1R, the pIC50 was 8.20.
For `CCCCn1c2c(cc(C(=O)N[C@H](CC)c3ccccc3)c1=O)CCCCCC2` [Compound 10-058], the pIC50 on human CB1R is 8.62.
Take `CCCCCc1cc(O)c2c(c1)OC(C)(C)[C@@H]1CCC(C)=C[C@@H]21` [Δ^9-tetrahydrocannabinol, delta-9-tetrahydrocannabinol, reference compound]: the pKi at mouse CB2 receptor is 8.04. Also, the “Antipruritic Effect (%)” value in series [3] (10 mg/kg (i.p.)) is given as 98**# %. For the same molecule, the “inhibitory effect on compound 48/80-induced pruritus (number of scratching vs vehicle group)” value in series [3] (female ICR mice, oral administration once, scratching counted for 30 min) is recorded as “inhibited compound 48/80-induced pruritus”.
As for `CCCCn1c(C)c(C)cc(C(=O)NCCc2ccccc2)c1=O` [Compound 3-010], the pKi in series [2] was 7.24.
Regarding `COCCn1c2c(cc(C(=O)NCc3ccccc3)c1=O)CCCCCC2` [Compound 4-301], the pKi in series [1] is 5.75; in series [2], 8.10.
`COc1c(Oc2nc3ccccc3o2)c(C)c(C)n(Cc2ccccc2)c1=O` gave a melting point of 197 to 198 °C.
In turn, `CSC(=O)N1CC(C)(C)CSC1=Nc1cccc(C(C)C)c1` [Compound I-52] registered a melting point of 88 to 90 °C.
On to `CCSC(=O)N1CCSC1=Nc1ccccc1C(C)C` [Compound I-6], for which, in series [1], the pKi was less than 5.30.
For `CCCCn1c(-c2ccccc2)c(C)cc(C(=O)NC(C)(C)c2ccccc2)c1=O` [Compound 13-030], the pIC50 at human CB1R is 9.15.
Turning to `CCC(C)CNC(=O)c1cc(C)c(C)n(CC2CCCCC2)c1=O` (stereo not drawn) [Compound 11-012], the pIC50 at human CB1R was 8.11.
On to `CCCCn1c2c(cc(C(=O)NCCc3ccc(N)cc3)c1=O)CCCCCC2` [Compound 4-104], for which the pKi in series [1] is 7.27; in series [2], 8.22. At human CB2R, this molecule showed a pIC50 of 8.01.
As for `CCCCn1c2c(cc(C(=O)N[C@H](C)C3CCCCC3)c1=O)CCCCCC2` [Compound 10-050], the pIC50 at human CB1R was 8.70.
Regarding `CCCCn1c2c(cc(C(=O)NCCc3ccccc3)c1=O)CCC2` [Compound 4-052], the pKi is 5.82 in series [1] and 7.62 in series [2].
For `CCCCn1c2c(cc(C(=O)NCC(C)(C)C)c1=O)CCCCCC2` [Compound 10-041], the pIC50 on human CB1R is 8.46.
`CCCCn1c(C)c(C)cc(NC(=O)c2ccccc2C)c1=O` [Compound 5-006]: the pKi in series [2] is 7.85.
`O=C(NCc1ccccc1)c1cc2c(n(Cc3ccncc3)c1=O)CCCCCC2` [Compound 4-310]: the pKi in series [1] was 6.29; in series [2], 8.05.
`CCCCn1c2c(cc(C(=O)NCCc3ccc(O)cc3)c1=O)CCCCCC2` [Compound 4-105]: the pKi in series [1] is 7.04; in series [2] it was 8.68.
`CC(C)OC(=O)CSC(=S)N1CC(C)(C)CSC1=Nc1ccccc1C(C)C` [II-13] displayed a melting point of 95 to 96 °C.
`CSC(=S)N1CC(C)(C)CSC1=Nc1ccccc1SC` [Compound I-62] displayed a melting point of 137 to 139 °C.
Regarding `COCCn1c2c(cc(C(=O)NCCc3ccccc3)c1=O)CCCCCC2` [Compound 4-302], the results for the pKi in series [1] and in series [2] were less than 5.30 and 8.00, respectively.
Molecule `C=CCSC(=S)N1CC2(CCOCC2)CSC1=Nc1ccccc1C(C)C` [II-92] gave a melting point of 73.5 to 75 °C.
`Cc1c(C(=O)c2cccc3ccccc23)c2cccc3c2n1[C@H](CN1CCOCC1)CO3` [WIN55212-2, reference compound]: the pKi on mouse CB2 receptor was 8.22. Further, in series [3] (100 mg/kg (p.o.)), the “Antipruritic Effect (%)” value is listed as 70* %.
In the case of `CSC(=O)N1CC(C)(C)CSC1=Nc1ccccc1C(C)C` [Compound I-50], the melting point lay in the range of 95 to 96 °C.
On to `COCC(=O)N1CC(C)(C)CSC1=Nc1ccccc1C(C)C` [Compound I-93], for which the melting point lay within 76 to 78 °C. Further, the pIC50 at human CB2R (setting [4]) was 9.22.
`CCSC(=O)N1CC(C)(C)CSC1=Nc1ccc([N+](=O)[O-])cc1C(C)C` [Compound I-46] yielded a melting point of 119 to 120 °C. In addition, at human CB2R (setting [4]), the pIC50 was 8.27.
`CCCCn1c2c(cc(C(=O)NC(=O)c3c(F)cccc3F)c1=O)CCCCCC2` [Compound 10-045]: the pIC50 at human CB1R is 8.92.

By pIC50 is commonly meant the IC50 on a negative log10 scale, so that one unit is a factor of ten. Usually pKi stands for the negative decadic logarithm of the Ki, by convention in mol/L. In general, melting point refers to the temperature, or range, at which the solid turns liquid.
